Experimental data reported in ChEMBL document CHEMBL5126576, “From tryptophan to novel mitochondria-disruptive agent, synthesis and biological evaluation of 1,2,3,6-tetrasubstituted carbazoles” (Eur J Med Chem, 2022).
Activity calls are given as the source filed them. The calls are words filed in the database; no cut-off is given here.

Experiments:
MCF7 = assay: Antiproliferative activity against human MCF7 cells after 72 hrs by MTT assay; type: functional, cell-based; settings: MCF7, 72 h
HCT-116 [1] = assay: Antiproliferative activity against human HCT-116 cells after 72 hrs by MTT assay; type: functional, cell-based; settings: HCT-116, 72 h
A549 [2] = assay: Antiproliferative activity against human A549 cells after 72 hrs by MTT assay; type: functional, cell-based; settings: A549, 72 h
[3] = Antiproliferative activity against human HEK293 cells after 72 hrs by MTT assay; type: toxicity, cell-based
HepG2 = assay: Antiproliferative activity against human HepG2 cells after 72 hrs by MTT assay; type: functional, cell-based; settings: HepG2, 72 h
U2OS [4] = assay: Antiproliferative activity against human U2OS cells after 72 hrs by MTT assay; type: functional, cell-based
HCT-116 [5] = assay: Induction of mitochondrial morphological changes in human HCT-116 cells assessed as reduction in mitochondrial length measured after 6 hrs by confocal microscopic analysis relative to control; type: functional; parameters: scale not given: the % may be the effect or the level left
HCT-116 [6] = assay: Induction of mitochondrial membrane potential loss in human HCT116 cells assessed as green fluorescence intensity by JC1 staining-based flow cytometry analysis; type: functional, cell-based
HCT-116 [7] = assay: Induction of mitochondrial morphological changes in human HCT-116 cells assessed as short circular-shaped mitochondria measured after 6 hrs by confocal microscopic analysis; type: functional, cell-based
HCT-116 [8] = assay: Induction of apoptosis in human HCT-116 cells assessed as increase in caspase 3/7 activity at IC50 measured after 6 to 48 hrs by […] based flow cytometry; type: functional, cell-based; settings: time 6-48 hrs
HCT-116 [9] = assay: Induction of DNA damage in human HCT-116 cells assessed as increase in H2AX phosphorylation measured after 24 to 72 hrs by immunofluorescence analysis; type: functional, cell-based; settings: time 24-72 hrs
HCT-116 [10] = assay: Inhibition of cell migration in human HCT-116 cells at 10 uM measured after 60 hrs by wound healing assay relative to control; type: functional
U2OS [11] = assay: Induction of mitochondrial morphological changes in human U2OS cells assessed as short circular-shaped mitochondria measured after 6 hrs by confocal microscopic analysis; type: functional, cell-based
U2OS [12] = assay: Induction of mitochondrial membrane potential loss in human U2OS cells assessed as green fluorescence intensity by JC1 staining-based flow cytometry analysis; type: functional, cell-based
HCT-116 [13] = assay: Induction of cell senescence in human HCT-116 cells assessed by increase SA-beta-Gal activity measured after 24 to 48 hrs by microscopic analysis; type: functional, cell-based; settings: time 24-48 hrs
[14] = Drug uptake in human HCT-116 cells assessed as accumulation in lipid droplets at IC50 measured after 2 hr by immunofluorescence analysis; type: ADME, cell-based; settings: hct-116, 2 h
U2OS [15] = assay: Inhibition of colony formation in human U2OS cells at 0.5 to 10 uM measured after 24 hrs crystal violet staining based assay; type: functional, cell-based; settings: dose 0.5-10 µM
U2OS [16] = assay: Inhibition of cell migration in human U2OS cells at 5 to 10 uM measured after 24 to 48 hrs by wound healing assay; type: functional, cell-based; settings: dose 5-10 µM, time 24-48 hrs
HCT-116 [17] = assay: Inhibition of colony formation in human HCT-116 cells at 0.5 to 10 uM measured after 24 hrs crystal violet staining based assay; type: functional, cell-based; settings: dose 0.5-10 µM
HCT-116 [18] = assay: Induction of apoptosis in human HCT-116 cells assessed as early and late apoptotic cells at IC50 measured after 24 hrs by Annexin-V-FITC/propidium iodide staining based flow cytometry; type: functional, cell-based
HCT-116 [19] = assay: Induction of reactive oxygen species generation in human HCT116 cells at 15 uM after 24 hrs by DCFH-DA staining based assay relative to control; type: functional
U2OS [20] = assay: Induction of reactive oxygen species generation in human U2OS cells by DCFH-DA staining based assay; type: functional, cell-based; settings: time 1-24 hrs
HCT-116 [21] = assay: Induction of apoptosis in human HCT-116 cells assessed as necrotic cells at IC50 measured after 48 hrs by Annexin-V-FITC/propidium iodide staining based flow cytometry relative to control; type: functional
HCT-116 [22] = assay: Inhibition of cell migration in human HCT-116 cells at 5 to 10 uM measured after 24 hrs by wound healing assay; type: functional, cell-based; settings: dose 5-10 µM
A549 [23] = assay: Induction of cell cycle arrest in human A549 cells assessed as increase in G2/M phase at IC50 measured after 24 hrs by flow cytometry; type: functional, cell-based
HCT-116 [24] = assay: Induction of cell cycle arrest in human HCT-116 cells assessed as slight increase in G0/G1 phase at IC50 measured after 24 hrs by flow cytometry; type: functional, cell-based
HCT-116 [25] = assay: Induction of cell cycle arrest in human HCT-116 cells assessed as moderate increase in S phase at IC50 measured after 24 hrs by flow cytometry; type: functional, cell-based
U2OS [26] = assay: Induction of cell cycle arrest in human U2OS cells assessed as slight increase in G0/G1 phase at IC50 measured after 24 hrs by flow cytometry; type: functional, cell-based
U2OS [27] = assay: Induction of DNA damage in human U2OS cells assessed as increase in H2AX phosphorylation measured after 48 hrs by immunofluorescence analysis relative to control; type: functional
HCT-116 [28] = assay: Induction of cell cycle arrest in human HCT-116 cells assessed as increase in number of cells at S phase at IC50 measured after 72 hrs by flow cytometry; type: functional, cell-based
A549 [29] = assay: Induction of cell cycle arrest in human A549 cells assessed as slight increase in G0/G1 phase at IC50 measured after 24 hrs by flow cytometry; type: functional, cell-based
U2OS [30] = assay: Induction of DNA damage in human U2OS cells assessed as increase in H2AX phosphorylation measured after 72 hrs by immunofluorescence analysis relative to control; type: functional
HCT-116 [31] = assay: Induction of apoptosis in human HCT-116 cells assessed as early apoptotic cells at IC50 measured after 6 hrs by Annexin-V-FITC/propidium iodide staining based flow cytometry; type: functional
U2OS [32] = assay: Induction of cell cycle arrest in human U2OS cells assessed as increase in G2/M phase at IC50 measured after 24 hrs by flow cytometry; type: functional, cell-based
A549 [33] = assay: Induction of cell cycle arrest in human A549 cells assessed as increase in number of cells at G2/M phase at IC50 measured after 24 to 48 hrs by flow cytometry; type: functional, cell-based; settings: time 24-48 hrs
U2OS [34] = assay: Induction of cell cycle arrest in human U2OS cells assessed as moderate increase in S phase at IC50 measured after 24 hrs by flow cytometry; type: functional, cell-based
A549 [35] = assay: Induction of cell cycle arrest in human A549 cells assessed as moderate increase in S phase at IC50 measured after 24 hrs by flow cytometry; type: functional, cell-based
A549 [36] = assay: Induction of cell cycle arrest in human A549 cells assessed as increase in number of cells at S phase at IC50 measured after 72 hrs by flow cytometry; type: functional, cell-based
HCT-116 [37] = assay: Induction of cell cycle arrest in human HCT-116 cells assessed as increase in G2/M phase at IC50 measured after 24 hrs by flow cytometry; type: functional, cell-based

CCOC(=O)c1c(O)c(NC(C)=O)cc2c1[nH]c1ccccc12
IC50 (MCF7): > 50 µM | IC50 (HCT-116 [1]): > 50 µM | IC50 (A549 [2]): > 50 µM | IC50 at 72 h [3]: > 50 µM | IC50 (HepG2): > 50 µM | IC50 (U2OS [4]): > 50 µM

CCOC(=O)c1c(O)c(NC(=O)OC(C)(C)C)cc2c1[nH]c1ccccc12
Activity (HCT-116 [5]): 50.34% | Activity (HCT-116 [6]): Active | IC50 (MCF7): > 50 µM | IC50 (HCT-116 [1]): 10.7 µM | Activity (HCT-116 [7]): Active | Activity (HCT-116 [8]): Active | Activity (HCT-116 [9]): Active | inhibition at 10 µM (HCT-116 [10]): 57% | Activity (U2OS [11]): Active | IC50 (A549 [2]): > 50 µM | Activity (U2OS [12]): Active | Activity (HCT-116 [13]): Active | Drug uptake [14]: Active | IC50 at 72 h [3]: > 50 µM | inhibition (U2OS [15]): Active | inhibition (U2OS [16]): Active | inhibition (HCT-116 [17]): Active | Activity (HCT-116 [18]): Active | Activity (HCT-116 [19]): 19.6% | IC50 (HepG2): > 50 µM | Activity (U2OS [20]): Active | Activity (HCT-116 [21]): 1.16% | IC50 (U2OS [4]): 15.7 µM | inhibition (HCT-116 [22]): Active

CCOC(=O)c1c(O)c(NC(=O)OC(C)(C)C)cc2c1[nH]c1ccc(OC(C)=O)cc12
IC50 (MCF7): > 50 µM | IC50 (HCT-116 [1]): 46.4 µM | IC50 (A549 [2]): > 50 µM | IC50 at 72 h [3]: > 50 µM | IC50 (HepG2): > 50 µM | IC50 (U2OS [4]): 37.5 µM

CC(C)(C)OC(=O)Nc1cc2c([nH]c3ccccc32)c(C(=O)O)c1O
Activity (A549 [23]): Active | Activity (HCT-116 [24]): Active | Activity (HCT-116 [25]): Active | Activity (U2OS [26]): Active | Activity (U2OS [27]): 51% | Activity (HCT-116 [5]): 36.71% | Activity (HCT-116 [6]): Active | IC50 (MCF7): > 50 µM | IC50 (HCT-116 [1]): 3.75 µM | Activity (HCT-116 [7]): Active | Activity (HCT-116 [8]): Active | Activity (HCT-116 [9]): Active | inhibition at 10 µM (HCT-116 [10]): 64.4% | Activity (U2OS [11]): Active | IC50 (A549 [2]): 11.5 µM | Activity (U2OS [12]): Active | Activity (HCT-116 [28]): Active | Activity (HCT-116 [13]): Active | Drug uptake [14]: Active | IC50 at 72 h [3]: > 50 µM | Activity (A549 [29]): Active | Activity (U2OS [30]): 68.2% | inhibition (U2OS [15]): Active | Activity (HCT-116 [31]): 11.23% | inhibition (U2OS [16]): Active | Activity (U2OS [32]): Active | inhibition (HCT-116 [17]): Active | Activity (HCT-116 [18]): Active | Activity (HCT-116 [19]): 64.2% | IC50 (HepG2): > 50 µM | Activity (A549 [33]): Active | Activity (U2OS [20]): Active | Activity (HCT-116 [21]): 2.38% | IC50 (U2OS [4]): 2.34 µM | inhibition (HCT-116 [22]): Active | Activity (U2OS [34]): Active | Activity (A549 [35]): Active | Activity (A549 [36]): Active | Activity (HCT-116 [37]): Active

CCOC(=O)c1c(O)c(NC(=O)c2ccc(CC)o2)cc2c1[nH]c1ccccc12
IC50 (MCF7): > 50 µM | IC50 (HCT-116 [1]): > 50 µM | IC50 (A549 [2]): > 50 µM | IC50 at 72 h [3]: > 50 µM | IC50 (HepG2): > 50 µM | IC50 (U2OS [4]): > 50 µM

CCOC(=O)Nc1cc2c([nH]c3ccccc32)c(C(=O)OCC)c1O
IC50 (MCF7): > 50 µM | IC50 (HCT-116 [1]): > 50 µM | IC50 (A549 [2]): 16.9 µM | IC50 at 72 h [3]: > 50 µM | IC50 (HepG2): > 50 µM | IC50 (U2OS [4]): > 50 µM

CCOC(=O)CC(=O)C(Cc1c[nH]c2ccccc12)NC(=O)OC(C)(C)C (configuration not stated)
IC50 (MCF7): > 50 µM | IC50 (HCT-116 [1]): > 50 µM | IC50 (A549 [2]): > 50 µM | IC50 at 72 h [3]: > 50 µM | IC50 (HepG2): > 50 µM | IC50 (U2OS [4]): > 50 µM

CCOC(=O)c1c(OC(=O)c2ccc(C)o2)c(NC(=O)c2ccc(C)o2)cc2c1[nH]c1ccc(NC(=O)c3ccc(C)o3)cc12
IC50 (MCF7): > 50 µM | IC50 (HCT-116 [1]): > 50 µM | IC50 (A549 [2]): > 50 µM | IC50 at 72 h [3]: > 50 µM | IC50 (HepG2): > 50 µM | IC50 (U2OS [4]): > 50 µM

CCOC(=O)c1c(O)c(NC(=O)OC(C)(C)C)cc2c1[nH]c1ccc(NC(=O)OC(C)(C)C)cc12
IC50 (MCF7): > 50 µM | IC50 (HCT-116 [1]): > 50 µM | IC50 (A549 [2]): > 50 µM | IC50 at 72 h [3]: > 50 µM | IC50 (HepG2): > 50 µM | IC50 (U2OS [4]): > 50 µM

O=c1[nH]cc(F)c(=O)[nH]1 [FLUOROURACIL]
IC50 (MCF7): 8.41 µM | IC50 (HCT-116 [1]): 5.78 µM | IC50 (A549 [2]): 8.12 µM | IC50 at 72 h [3]: 41 µM | IC50 (HepG2): 19 µM | IC50 (U2OS [4]): 13 µM

CCOC(=O)c1c(O)c(NC(=O)c2ccc(C)o2)cc2c1[nH]c1ccccc12
IC50 (MCF7): > 50 µM | IC50 (HCT-116 [1]): > 50 µM | IC50 (A549 [2]): > 50 µM | IC50 at 72 h [3]: > 50 µM | IC50 (HepG2): > 50 µM | IC50 (U2OS [4]): > 50 µM
